Source: patent publication US20210299079A1, “MONOMETHYL FUMARATE-CARRIER CONJUGATES AND METHODS OF THEIR USE” (Flagship Pioneering Innovations V, Inc., priority 2018, published 2021)

What was measured:
[1] = test system: experimental autoimmune encephalomyelitis (EAE); assay: In Vivo EAE Model of Multiple Sclerosis; parameters: species or system C57BL/6J mice
Description: For experimental autoimmune encephalomyelitis (EAE) study, 8- to 11-week-old C57BL/6J mice were anesthetized and subcutaneously injected with […] and […]. Pertussis toxin (200 ng/mouse) was applied i.p. on days 0. Daily clinical evaluation was performed via a 5-point scale, and the clinical progression was observed over 28 days (FIG. 2A). […] At the end of the study, flow cytometry analysis was performed on the spleen (n=8 per group). […] Statistical analysis was performed with GraphPad Prism (GraphPad Software). Unpaired t test was used to assess significance between the control (Vehicle) and each treatment group. For experimental autoimmune encephalomyelitis (EAE) studies, 8- to 11-week old C57BL/6J mice were anesthetized and subcutaneously injected with […] and […]. Pertussis toxin (200 ng/mouse) was applied intraperitoneally on day 0. Daily clinical evaluation as performed using a 5-point scale and the clinical progression was observed over 28 days (FIGS. 2C and 2D).

AhR = molecular target: T1, AhR (Homo sapiens, UniProt P35869); assay: AhR Activation in Caco-2 Cells Through CYP1A1 mRNA Expression; conditions: overnight
T1 sequence (P35869 11-848): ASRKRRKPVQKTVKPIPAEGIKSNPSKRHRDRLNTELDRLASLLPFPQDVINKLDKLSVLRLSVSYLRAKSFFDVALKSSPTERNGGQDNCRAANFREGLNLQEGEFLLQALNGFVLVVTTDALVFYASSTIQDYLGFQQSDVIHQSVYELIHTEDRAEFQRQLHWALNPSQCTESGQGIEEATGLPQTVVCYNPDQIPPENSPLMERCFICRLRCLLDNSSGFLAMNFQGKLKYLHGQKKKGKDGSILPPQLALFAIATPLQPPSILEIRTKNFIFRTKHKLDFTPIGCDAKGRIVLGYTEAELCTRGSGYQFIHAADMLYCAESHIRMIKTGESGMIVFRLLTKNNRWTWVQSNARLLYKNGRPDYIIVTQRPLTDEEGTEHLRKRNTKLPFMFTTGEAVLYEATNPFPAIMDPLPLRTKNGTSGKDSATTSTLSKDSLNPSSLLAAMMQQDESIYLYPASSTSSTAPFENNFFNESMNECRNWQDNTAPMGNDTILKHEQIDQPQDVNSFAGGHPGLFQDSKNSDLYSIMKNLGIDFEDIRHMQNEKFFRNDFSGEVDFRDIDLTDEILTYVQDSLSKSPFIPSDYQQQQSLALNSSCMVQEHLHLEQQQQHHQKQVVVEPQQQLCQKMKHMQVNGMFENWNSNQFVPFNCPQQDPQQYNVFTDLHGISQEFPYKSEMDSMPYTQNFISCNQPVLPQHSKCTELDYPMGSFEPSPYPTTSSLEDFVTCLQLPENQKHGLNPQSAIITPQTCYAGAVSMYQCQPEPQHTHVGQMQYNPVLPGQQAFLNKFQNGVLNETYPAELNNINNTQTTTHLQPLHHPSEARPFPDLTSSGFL
Description: Caco-2 cells from American Type Culture Collection (ATCC) were plated in a sterile tissue culture treated 96-well plate (ThermoFisher) at 8.0×10^5 cells per well, and grown overnight at 37° C., 5% CO2 in DMEM complete (Gibco) in order to achieve confluence. After the incubation medium was aspirated off of the Caco-2 monolayers, tissues were then washed with 200 μL of warmed PBS solution, and subsequently 190 μL of pre-warmed growth medium was added to each well. Compounds of interest were diluted at a 20× concentration in growth medium containing 2% DMSO, and 10 μL of compound solutions were added to respective wells in triplicate. Compounds where incubated overnight at 37° C., 5% CO2. 2-(1′H-indole-3′-carbonyl)-thiazole-4-carboxylic acid methyl ester (ITE) was used as the positive control for AhR activation at 1 and 100 μM concentrations. At the end of the incubation, medium was aspirated off of the Caco-2 cells, and washed with 100 μL of cold PBS solution. RNA was extracted via the TaqMan™ Gene Expression Cells-to-CT™ Kit (ThermoFisher) according to the manufacturer's protocol. The QuantStudio 6 Flex (Applied Biosciences) was used to analyze mRNA levels of CYP1A1 using GAPDH as the endogenous control. TaqMan™ probe sets for both genes were acquired from ThermoFisher. Samples were run in triplicate and data was analyzed using the QuantStudio software and reported as linear (Table 6) and log 2(ΔΔCT) values. Statistical analysis was performed using a two-tailed t-test comparing CYP1A1 levels in the presence of each individual compound to the vehicle negative control.

IL-1β = assay: Cytokine Release from Human PBMCs: IL-1β; format: cell-based; conditions: LPS, 24 hours, Concentration 100 μM
Description: Human donor blood (8 mL) was collected in sodium citrate CPT tubes and centrifuged at 1,600×g for 20 minutes at room temperature. Buffy coat containing PBMCs was collected and transferred to a 50 mL conical tube containing 30 mL of RPMI-1640 medium at room temperature (supplemented with penicillin-streptomycin). PBMCs samples were centrifuged at 400×g for 10 minutes at 10° C. The pelleted PBMCs were washed twice in 10 ml of RPMI-1640 medium (supplemented with penicillin-streptomycin), then resuspended in RPMI-1640 medium (supplemented with penicillin-streptomycin, fetal bovine serum, and L-Glutamine). PBMCs were filtered through a 70 micron mesh to remove any cellular debris. […] PBMCs in a 96-well plate were rested for 30 minutes in a 37° C., 5% CO2 incubator, then subsequently treated with 10 μI of indicated compound. After 2 hours 10 μL of LPS (0111:64) 1 mg/mL was added to test wells. After 24 hours of incubation at 37° C., 5% CO2, 100 μL of cell supernatant was collected and transferred to a 96-well plate (non-tissue treated, flat bottom). The plate was centrifuged at 350×g for 5 minutes at room temperature, and then the clear supernatant transferred to a new 96-well plate (non-tissue treated, flat bottom). The remaining cells were tested for viability using CellTiter-Glo® Luminescent Cell Viability Assay (Promega). The supernatant was analyzed for TNFα, IL-6 and IL-1β (kit […] Systems), using Luminex Immunoassay Technology (MAGPIX System).

CCC(=O)O [propionate]
EAE score (5-point scale) compared to control (vehicle only) ([1]; Study 1, 200 mM in drinking water, 28 days): lower EAE scores | TH17 cell (CD3+)/regulatory T cells (CD3+, Foxp3+) ratio ([1]; Study 1, spleen flow cytometry at end of study, 200 mM in drinking water, vs vehicle, P<0.05): significantly reduced | Average CYP1A1 mRNA levels (AhR; Conc. 1000.0 μM): − (− = <2-fold Vehicle) | Average CYP1A1 mRNA levels (AhR; Conc. 3000.0 μM): − (− = <2-fold Vehicle) | IL1β % DMSO control (IL-1β): + ((+) 50% > <90% DMSO)
